Our source for the Ki values is ChEMBL document CHEMBL1130243, “Potent and selective inhibition of neuronal nitric oxide synthase by N omega-propyl-L-arginine” (J Med Chem, 1997).

The target in one experiment is T1, Nitric oxide synthase 3 (Bos taurus, UniProt P29473).
T1 sequence (P29473 whole entry): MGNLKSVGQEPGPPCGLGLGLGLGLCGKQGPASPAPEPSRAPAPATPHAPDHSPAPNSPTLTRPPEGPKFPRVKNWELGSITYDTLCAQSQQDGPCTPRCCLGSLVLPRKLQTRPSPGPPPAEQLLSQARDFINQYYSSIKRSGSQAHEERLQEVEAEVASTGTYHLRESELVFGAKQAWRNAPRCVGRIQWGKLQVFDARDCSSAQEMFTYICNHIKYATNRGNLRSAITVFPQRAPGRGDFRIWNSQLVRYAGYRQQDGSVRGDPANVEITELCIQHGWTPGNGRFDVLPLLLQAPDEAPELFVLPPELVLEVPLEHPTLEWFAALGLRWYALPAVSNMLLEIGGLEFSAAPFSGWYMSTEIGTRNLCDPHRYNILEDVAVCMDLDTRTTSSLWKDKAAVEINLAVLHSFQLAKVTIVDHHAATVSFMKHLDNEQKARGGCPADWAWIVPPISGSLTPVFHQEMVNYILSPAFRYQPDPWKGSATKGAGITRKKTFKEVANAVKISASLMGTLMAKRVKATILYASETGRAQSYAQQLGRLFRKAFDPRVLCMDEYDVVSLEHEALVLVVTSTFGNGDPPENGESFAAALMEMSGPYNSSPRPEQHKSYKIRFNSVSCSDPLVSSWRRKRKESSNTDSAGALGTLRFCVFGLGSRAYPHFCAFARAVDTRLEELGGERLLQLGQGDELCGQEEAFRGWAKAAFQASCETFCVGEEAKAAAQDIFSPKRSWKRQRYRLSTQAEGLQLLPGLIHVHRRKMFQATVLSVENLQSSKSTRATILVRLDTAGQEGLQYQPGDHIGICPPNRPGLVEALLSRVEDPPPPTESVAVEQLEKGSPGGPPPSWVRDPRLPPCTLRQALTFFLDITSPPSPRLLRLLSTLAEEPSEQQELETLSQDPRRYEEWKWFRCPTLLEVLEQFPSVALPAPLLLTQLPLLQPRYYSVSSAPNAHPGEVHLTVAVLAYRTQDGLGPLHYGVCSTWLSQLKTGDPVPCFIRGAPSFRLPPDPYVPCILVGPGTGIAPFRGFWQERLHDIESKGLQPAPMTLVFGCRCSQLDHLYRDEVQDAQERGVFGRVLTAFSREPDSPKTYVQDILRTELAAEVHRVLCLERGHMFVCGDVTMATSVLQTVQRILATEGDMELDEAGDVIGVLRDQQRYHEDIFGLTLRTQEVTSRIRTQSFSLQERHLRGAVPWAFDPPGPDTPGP
Put plainly: Compound was tested for binding affinity against Endothelial nitric oxide synthase.

In experiment [1] the target is T2, Nitric oxide synthase, inducible (Mus musculus, UniProt P29477).
T2 sequence (P29477 whole entry): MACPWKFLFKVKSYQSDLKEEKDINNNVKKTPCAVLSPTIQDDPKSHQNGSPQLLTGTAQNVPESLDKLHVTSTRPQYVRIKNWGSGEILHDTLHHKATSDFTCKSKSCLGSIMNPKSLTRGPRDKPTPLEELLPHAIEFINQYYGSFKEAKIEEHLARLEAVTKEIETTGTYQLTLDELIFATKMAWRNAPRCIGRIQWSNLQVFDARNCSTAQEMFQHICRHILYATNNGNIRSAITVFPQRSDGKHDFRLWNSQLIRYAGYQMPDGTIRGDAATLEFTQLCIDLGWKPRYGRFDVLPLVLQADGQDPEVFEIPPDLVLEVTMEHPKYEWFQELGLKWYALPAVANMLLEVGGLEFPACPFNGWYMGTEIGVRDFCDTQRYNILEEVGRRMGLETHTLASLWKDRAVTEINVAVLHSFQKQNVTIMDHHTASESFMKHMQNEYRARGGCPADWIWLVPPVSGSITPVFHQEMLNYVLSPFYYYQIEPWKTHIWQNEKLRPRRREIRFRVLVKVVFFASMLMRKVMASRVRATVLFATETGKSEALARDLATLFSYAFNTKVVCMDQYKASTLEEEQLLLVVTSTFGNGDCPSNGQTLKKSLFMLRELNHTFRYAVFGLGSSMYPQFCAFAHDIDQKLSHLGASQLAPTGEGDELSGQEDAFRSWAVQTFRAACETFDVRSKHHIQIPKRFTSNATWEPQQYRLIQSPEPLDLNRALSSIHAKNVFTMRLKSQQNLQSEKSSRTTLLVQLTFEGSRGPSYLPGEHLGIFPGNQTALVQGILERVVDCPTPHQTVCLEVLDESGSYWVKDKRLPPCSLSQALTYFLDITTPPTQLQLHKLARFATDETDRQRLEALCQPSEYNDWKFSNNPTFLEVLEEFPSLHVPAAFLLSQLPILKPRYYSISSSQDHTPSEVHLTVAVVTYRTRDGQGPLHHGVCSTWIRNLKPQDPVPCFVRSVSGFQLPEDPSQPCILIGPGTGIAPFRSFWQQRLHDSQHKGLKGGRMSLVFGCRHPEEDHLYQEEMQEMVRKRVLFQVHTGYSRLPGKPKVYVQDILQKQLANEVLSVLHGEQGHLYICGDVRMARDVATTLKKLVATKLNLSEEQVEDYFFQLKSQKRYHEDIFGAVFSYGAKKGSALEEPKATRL
The experiment can be described thus: Compound was tested for binding affinity against recombinant inducible nitric oxide synthase (iNOS) from mouse.

The term Ki denotes a measure of affinity in units of concentration, obtained from inhibition or displacement. As to `C=CCNC(=N)NCCCC(N)C(C)=O` (stereo unspecified), the Ki on Nitric oxide synthase 3 came to 3.1 µM; in experiment [1] it was 2.1 µM.
`CCC/N=C(/N)NCCCC(N)C(=O)O` (stereo unspecified): the Ki on Nitric oxide synthase 3 is 8.5 µM.
Turning to `CC/N=C(/N)NCCCC(N)C(=O)O` (stereo unspecified), the inhibitory constant (Ki) was determined as 9.5 µM at Nitric oxide synthase 3 and 6.1 µM in experiment [1].
As for `C#CC/N=C(/N)NCCCC(N)C(=O)O` (stereo unspecified), the Ki in experiment [1] was 0.62 µM.
